# Patent US20120207821A1, “Liposomal formulation and use thereof” (priority 2005, published 2012)
# Key:
# [1] = system: Leishmania donovani, AG83; experiment: In vivo efficacy in established infection model (8 weeks post infection); settings: BALB/c mice, single i.v. dose 8 weeks post infection, 30 days post treatment, SAG 0.3-0.4 g/kg body wt.
# Source text: Inbred mice of 4-6 weeks old, weigh 20 g and of any sex, strain BALB/c were infected with Leishmania donovani, AG83, by intravenous inoculation with 2.5×10^7 amastigotes from the spleen of an infected hamster. Eight weeks after inoculation, the mice were divided into groups of 4-5 animals and administered at a single dose intravenously into the tail vein with optimal dose of free SAG (0.3 g/kg wt.) or empty PC-SA liposome (1.1 g/kg wt.) or SAG entrapped PC-SA liposome (0.015 g/kg of SAG into 1.1 g/kg body wt.) or SAG entrapped in PC-Chol liposome (0.015 g/kg of SAG into 1.25 g/kg wt. of lipid). Mice were sacrificed on 30 days post treatment. Livers and spleens were excised and weighed. Bone marrow was also isolated from femur bone and smeared on glass slides. Impressions smears were prepared from the cut surface of the liver and spleen. The impression smears were stained with Giemsa, and number of amastigotes counted microscopically per 500 cell nuclei. The results of 30 days post treatment are shown below and expressed as percentage suppression in parasitemia with respect to untreated infected.
# [2] = system: Leishmania donovani, AG83; experiment: In vivo activity screening in established infection model with graded doses to calculate 50% effective dose; settings: for % Inhibition of liver parasite level / % Inhibition of spleen parasite level: BALB/c mice, i.v., 30 days post treatment
# Source text: Inbred mice of 4-6 weeks old, weigh 20 g and of any sex, strain BALB/c were infected with Leishmania donovani, AG83, by intravenous inoculation with 2.5×10^7 amastigotes from the spleen of an infected hamster. Eight weeks after inoculation, the mice were divided into groups of 4-5 animals and dosed intravenously into the tail vein with graded dose of free SAG, empty PC-SA liposome, or SAG entrapped PC-SA liposome. Mice were sacrificed on 30 days post treatment. The livers and spleens were excised and weighed. Impressions smears were prepared from the cut surface of the liver and spleen. The impression smears were stained with Giemsa, and number of amastigotes counted microscopically per 500 cell nuclei. The results of 30 days post treatment are expressed as percentage suppression in parasite burden in compared to infected but untreated mice. Thereby, the dosage necessary to reduce the parasite count to 50% of the untreated group could be calculated.
# [3] = system: Leishmania donovani, AG83; experiment: In vivo activity screening in chronic infection model (12 weeks post infection); settings: BALB/c mice, single i.v. dose 12 weeks post infection, 30 days post treatment; SAG 0.015-0.02 g/kg body wt.
# Source text: Inbred mice of 4-6 weeks old, weigh 20 g and of any sex, strain BALB/c were infected with Leishmania donovani, AG83, by intravenous inoculation with 2.5×10^7 amastigotes from the spleen of an infected hamster. Twelve weeks after inoculation, the mice were divided into groups of 4-5 animals and dosed intravenously into the tail vein with empty PC-SA liposome (1-1.1 g/kg body wt.), free SAG (0.015-0.020 g/kg body wt.) or equivalent amount of SAG entrapped in PC-SA liposome (0.015 g/kg of SAG in 1-1.1 g/kg body wt of liposome). Mice were sacrificed on 30 days post treatment. Livers and spleens were excised and weighed. Impressions smears were prepared from the cut surface of the liver and spleen. The impression smears were stained with Giemsa, and number of amastigotes counted microscopically per 500 cell nuclei. The results of 30 days post treatment are shown below and expressed percentage suppression in parasitemia with respect to untreated infected control calculated.
# [4] = system: Leishmania donovani GE1F8R strain; experiment: In vivo efficacy assay against SAG-resistant strain; settings: BALB/c mice, i.v. 8 weeks after inoculation, 30 days post treatment
# Method: Inbred mice of 4-6 weeks old, weigh […] and of any sex, strain BALB/c were infected with Leishmania donovani GE1F8R strain by intravenous inoculation with 2.5×10^7 amastigotes from the spleen of an infected hamster. Eight weeks after inoculation, the mice were divided into groups of 4-5 animals and dosed intravenously into the tail vein with optimal dose of free SAG, equivalent amount of free SAG, empty PC-SA liposome or SAG entrapped PC-SA liposome ([…]). Mice were sacrificed on 30 days post treatment. Livers and spleens were excised and weighed. Bone marrow was also isolated and smeared on glass slides. Impressions smears were prepared from the cut surface of the liver and spleen. The impression smears were stained with Giemsa, and number of amastigotes counted microscopically per 500 cell nuclei. The results of 30 days post treatment are expressed as Leishman Donovan units and percentage suppression in parasitemia with respect untreated infected control were calculated.
# [5] = liver parasite level, dose expressed as SAG
# [6] = spleen parasite level, dose expressed as SAG
compound,measurement,setting,value
sodium antimony gluconate [SAG],% Inhibition of liver parasite level,[1],82.322%
same,% Inhibition of spleen parasite level,[1],70%
same,% Inhibition of parasite level,[1]; bone marrow,44.029%
same,% Inhibition of liver parasite level,[2]; SAG 0.005 g/kg body wt.,56.55%
same,% Inhibition of spleen parasite level,[2]; SAG 0.005 g/kg body wt.,41.27%
same,% Inhibition of liver parasite level,[2]; SAG 0.010 g/kg body wt.,56.7%
same,% Inhibition of spleen parasite level,[2]; SAG 0.010 g/kg body wt.,50.95%
same,% Inhibition of liver parasite level,[2]; SAG 0.050 g/kg body wt.,61.29%
same,% Inhibition of spleen parasite level,[2]; SAG 0.050 g/kg body wt.,55.67%
same,% Inhibition of liver parasite level,[2]; SAG 0.10 g/kg body wt.,88.03%
same,% Inhibition of spleen parasite level,[2]; SAG 0.10 g/kg body wt.,65.79%
same,% Inhibition of liver parasite level,[2]; SAG 0.30 g/kg body wt.,92.73%
same,% Inhibition of spleen parasite level,[2]; SAG 0.30 g/kg body wt.,70.49%
same,% Inhibition of liver parasite level,[2]; SAG 0.50 g/kg body wt.,96.6%
same,% Inhibition of spleen parasite level,[2]; SAG 0.50 g/kg body wt.,80.33%
same,"ED50 (+S.E) Liver, SAG",[2]; [5],0.012 + 0.004 g/kg body wt.
same,"ED90 (+S.E) Liver, SAG",[2]; [5],0.347 + 0.005 g/kg body wt.
same,"ED50 (+S.E) Spleen, SAG",[2]; [6],0.145 + 0.020 g/kg body wt.
same,"ED90 (+S.E) Spleen, SAG",[2]; [6],0.493 + 0.028 g/kg body wt.
same,% Inhibition of liver parasite level,[3],50.88%
same,% Inhibition of spleen parasite level,[3],26.69%
same,% Inhibition of parasite level,"[4]; bone marrow, SAG 0.015-0.02 g/kg body wt.",0%
same,% Inhibition of parasite level,"[4]; bone marrow, SAG 0.3 g/kg body wt.",16.836%
same,% Inhibition of parasite level,"[4]; liver, SAG 0.015-0.02 g/kg body wt.",0%
same,% Inhibition of parasite level,"[4]; liver, SAG 0.3 g/kg body wt.",5.309%
same,% Inhibition of parasite level,"[4]; spleen, SAG 0.015-0.02 g/kg body wt.",0%
same,% Inhibition of parasite level,"[4]; spleen, SAG 0.3 g/kg body wt.",16.836%
C[C@@H]1[C@H](O)[C@@H](C)/C=C/C=C/C=C/C=C/C=C/C=C/C=C/[C@H](O[C@@H]2O[C@H](C)[C@@H](O)[C@H](N)[C@@H]2O)C[C@@H]2O[C@](O)(C[C@@H](O)C[C@@H](O)[C@H](O)CC[C@@H](O)C[C@@H](O)CC(=O)O[C@H]1C)C[C@H](O)[C@H]2C(=O)O [Amphotericin B],% Inhibition of parasite level,"[4]; bone marrow, Amphotericin B 0.002-0.0025 g/kg body wt.",85.091%
same,% Inhibition of parasite level,"[4]; liver, Amphotericin B 0.002-0.0025 g/kg body wt.",87.778%
same,% Inhibition of parasite level,"[4]; spleen, Amphotericin B 0.002-0.0025 g/kg body wt.",85.091%
